Several values for one entry are separate records, joined by “and”; a condition that tells them apart may be missing. Equal values may be shown once. Square brackets hold non-standard residues; d marks the D form. Ends that are not written are not given here. Peptide text beside a SMILES is read from it. Nle = CCCC[C@H](N)C(=O)O
Tests used:
E-selectin [1] = molecular target: T1, E-selectin (Homo sapiens, UniProt P16581); experiment: IC50-standard competitive binding assay (radiolabeled standard peptide on immobilized E-selectin); parameters: truncated form comprising the complete extracellular domain (amino acids 1 through 554); made in house; a baculovirus soluble form is also mentioned as an option
T1 sequence (P16581 22-554): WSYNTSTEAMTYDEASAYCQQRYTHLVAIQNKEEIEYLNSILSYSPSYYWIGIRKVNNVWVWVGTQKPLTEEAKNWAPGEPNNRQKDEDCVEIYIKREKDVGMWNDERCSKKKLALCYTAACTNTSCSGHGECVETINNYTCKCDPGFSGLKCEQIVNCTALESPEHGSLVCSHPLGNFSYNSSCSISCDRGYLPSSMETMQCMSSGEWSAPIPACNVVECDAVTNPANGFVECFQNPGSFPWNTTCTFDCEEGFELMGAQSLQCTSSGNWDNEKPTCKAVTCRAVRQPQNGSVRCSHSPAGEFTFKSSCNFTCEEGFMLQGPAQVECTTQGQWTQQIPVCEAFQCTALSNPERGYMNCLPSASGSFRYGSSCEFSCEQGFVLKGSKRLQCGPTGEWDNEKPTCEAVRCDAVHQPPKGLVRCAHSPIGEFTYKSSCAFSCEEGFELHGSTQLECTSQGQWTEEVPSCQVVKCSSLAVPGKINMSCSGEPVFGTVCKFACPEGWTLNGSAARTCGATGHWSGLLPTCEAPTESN
Description: This latter peptide has strong binding affinity to E-selectin and, accordingly, was used as a standard in a competitive binding assay with candidate peptides and peptide mimetics in order to determine relative binding affinities for E-selectin.
This example measures the concentration of peptide or peptide mimetic required to inhibit 50% of the binding of a radiolabeled standard to E-selectin and the resulting IC50 value is referred to as the "IC50 -standard". In this example, the standard corresponds to the synthetic peptide […] (SEQ ID NO 114) which comprises a known initial seven amino acid group which is a substrate for protein kinase A followed by a 2 amino acid spacer and a 12 amino acid sequence which corresponds to the peptide identified by SEQ ID NO 3 which has an IC50 -HL60 of 10 μM. The peptide is radiolabeled by phosphorylation using either […] or ^33 P phosphate by conventional methods via the protein kinase A. The example is a competitive assay in which 6.5 picograms at 1400 Ci/mmol (65000 cpm) of radiolabelled standard (1400 Ci/mmol) is combined with a titered amount of candidate peptide or peptide mimetic in a constant volume of 30 μL. The combined solution is then added to E-selectin immobilized onto a solid surface in the manner described above. The resulting mixture is then incubated for about 120 minutes to permit equilibrium binding to be achieved. Afterwards, unbound materials are separated from bound materials by conventional methods (e.g., washing) and the amount of the […] bound to E-selectin is determined by scintillation counting. The assay is repeated over several concentrations of candidate peptide or peptide mimetic and the results are entered into a graph whose y axis is the amount of radiolabeled standard bound to E-selectin (measured in cpm) and the x axis is the amount of candidate peptide or peptide mimetic. The results are graphically extrapolated to determine the concentration at which the peptide or peptide mimetic will reduce by 50% the amount of radiolabeled standard bound to E-selectin. This concentration is taken as the IC50 -standard for that peptide or peptide mimetic.

E-selectin [2] = molecular target: T1, E-selectin; experiment: HL60 cell adhesion assay (labeled HL60 cells adhering to immobilized E-selectin); assay type: cell-based; parameters: truncated form comprising the complete extracellular domain (amino acids 1 through 554); made in house; conditions: for IC50: concentration reducing by 50% the binding of HL60 cells to immobilized E-selectin
Procedure: By comparing test wells with control wells (no receptor), one can determine whether a peptide binds to E-selectin specifically. […] In this regard, HL60 cells are known to contain surface glycoconjugates which bind to E-selectin.
Peptides that block the binding of labeled HL60 cells to E-selectin are then evaluated to determine their IC50 -HL60 in the manner also specified in Example 1.
The assay requires HL60 cells labeled with tritiated thymidine. To label the cells, about 10 million HL60 cells are collected by centrifugation (2500 RPM for 3 minutes) and resuspended in 15 mL of DMEM/F12 plus 5% fetal calf serum containing 2 μCi/mL of tritiated thymidine (Amersham). The cells are then placed in a T75 flask and incubated at 37° C. for 24 hours. The cells are then collected by centrifugation, washed twice with RPMI/HEPES/0.1% FCS, and resuspended in the same solution at a concentration of about one to two million cells per mL. About 100 μL of this cell preparation are used per well of a 96-well microtiter dish in the assay.
The wells of the microtiter dish were first coated with the anti-receptor immobilizing antibody, an anti-HPAP-tail antibody, using about 2.5 μg of antibody per well. […]
After the test compound incubation period, 100 μL of labeled HL60 cells were added to each well, and the microtiter plate was incubated at 4° C. for 30 minutes. […] After this incubation, aliquots were removed from each well and placed in scintillation vials; scintillation fluid was added to each vial; and the radioactivity in each aliquot was quantitated by liquid scintillation counting. […]
The concentration of any peptide or peptide mimetic required to reduce by 50% the binding of HL60 cells to E-selectin as per the assay of Example 1 is determined by the following procedure. […] (SEQ ID NO 23), was determined. […]

[3] = inhibits 50% of binding of radiolabeled standard […] to E-selectin
[4] = inhibits 50% of binding of radiolabeled standard to E-selectin

| Compound | IC50 (E-selectin [1]; [3]) [nM] | other results |
| --- | --- | --- |
| CC[C@@H](C)[C@@H](NC(=O)[C@@H](N)CC(=O)O)C(=O)N[C@H](C(=O)N[C@@H](Cc1c[nH]c2ccccc12)C(=O)N[C@@H](CC(=O)O)C(=O)N[C@@H](CCC(N)=O)C(=O)N[C@@H](CC(C)C)C(=O)N[C@@H](Cc1c[nH]c2ccccc12)C(=O)N[C@@H](CC(=O)O)C(=O)N[C@@H](CC(C)C)C(=O)N[C@@H](CCSC)C(=O)N[C@@H](CCCCN)C(=O)O)[C@@H](C)O (H-D[dI]TWDQLWDLMK-OH) | 27 | – |
| RNMSWLELWEHMK | 35 | – |
| CC[C@H](C)[C@H](NC(=O)[C@@H](N)CC(=O)O)C(=O)N[C@H](C(=O)N[C@@H](Cc1c[nH]c2ccccc12)C(=O)N[C@@H](CC(=O)O)C(=O)N[C@@H](CCC(N)=O)C(=O)N[C@@H](CC(C)C)C(=O)N[C@@H](Cc1c[nH]c2ccccc12)C(=O)N[C@@H](CC(=O)O)C(=O)N[C@H](CC(C)C)C(=O)N[C@@H](CCSC)C(=O)N[C@@H](CCCCN)C(=O)O)[C@@H](C)O (H-DITWDQLWD[dL]MK-OH) | 33000 | – |
| CCCC[C@H](NC(=O)[C@H](CCCC)NC(=O)[C@H](CC(N)=O)NC(=O)[C@H](Cc1c[nH]c2ccccc12)NC(=O)[C@H](CC(C)C)NC(=O)[C@H](CCC(N)=O)NC(=O)[C@H](C)NC(=O)[C@H](Cc1c[nH]c2ccccc12)NC(=O)[C@@H](NC(=O)[C@@H](NC(=O)[C@@H](N)CC(=O)O)[C@@H](C)CC)[C@@H](C)O)C(=O)N[C@@H](CC(N)=O)C(=O)O (H-DITWAQLWN[Nle][Nle]N-OH) | 425 | – |
| DITWDQLWDLMK | 3 | IC50 (E-selectin [2]): < 10000 nM and 10000 nM |
| HITWDQLWNVMN | – | IC50 (E-selectin [2]): 50000 nM and 100000 nM and ~50000 nM; blocking of HL60 cell binding that occurred in the absence of added compound (E-selectin [2]; peptide at 200 μM, FIG. 1): over 80% |
| DGDITWDQLWDLMK | 4 | – |
| CCCC[C@H](NC(=O)[C@H](CC(C)C)NC(=O)[C@H](CC(=O)O)NC(=O)[C@H](Cc1c[nH]c2ccccc12)NC(=O)[C@H](CC(C)C)NC(=O)[C@H](CCC(N)=O)NC(=O)[C@H](CC(=O)O)NC(=O)[C@H](Cc1c[nH]c2ccccc12)NC(=O)[C@@H](NC(=O)[C@@H](NC(=O)[C@H](CC(=O)O)NC(=O)CNC(=O)[C@@H](N)CC(=O)O)[C@@H](C)CC)[C@@H](C)O)C(=O)N[C@@H](CCCCN)C(=O)O (H-DGDITWDQLWDL[Nle]K-OH) | 42 | – |
| HITWDQLWRIMT | 28 | – |
| CC[C@H](C)[C@H](NC(=O)[C@H](N)CC(=O)O)C(=O)N[C@H](C(=O)N[C@@H](Cc1c[nH]c2ccccc12)C(=O)N[C@@H](CC(=O)O)C(=O)N[C@@H](CCC(N)=O)C(=O)N[C@@H](CC(C)C)C(=O)N[C@@H](Cc1c[nH]c2ccccc12)C(=O)N[C@@H](CC(=O)O)C(=O)N[C@@H](CC(C)C)C(=O)N[C@@H](CCSC)C(=O)N[C@@H](CCCCN)C(=O)O)[C@@H](C)O (H-[dD]ITWDQLWDLMK-OH) | 25 | – |
| CCCC[C@H](NC(=O)[C@H](CC(C)C)NC(=O)[C@H](CC(=O)O)NC(=O)[C@H](Cc1c[nH]c2ccccc12)NC(=O)[C@H](CC(C)C)NC(=O)[C@H](CCC(N)=O)NC(=O)[C@H](CC(=O)O)NC(=O)[C@H](Cc1c[nH]c2ccccc12)NC(=O)[C@@H](NC(=O)[C@@H](NC(=O)[C@@H](N)CCC(N)=O)[C@@H](C)CC)[C@@H](C)O)C(=O)N[C@@H](CCCCN)C(=O)O (H-QITWDQLWDL[Nle]K-OH) | 65 | – |
| DITWDQLWDLMK-NH2 | 22 | – |
| QITWAQLWNMMK | 12 | – |
| CCCC[C@H](NC(=O)[C@H](CC(C)C)NC(=O)[C@H](CC(=O)O)NC(=O)[C@H](Cc1c[nH]c2ccccc12)NC(=O)[C@H](CC(C)C)NC(=O)[C@H](CCC(N)=O)NC(=O)[C@H](CC(=O)O)NC(=O)[C@H](Cc1c[nH]c2ccccc12)NC(=O)[C@@H](NC(=O)[C@@H](NC(=O)[C@@H](N)CC(=O)O)[C@@H](C)CC)[C@@H](C)O)C(=O)N[C@@H](CCCCN)C(=O)O (H-DITWDQLWDL[Nle]K-OH) | 23 | – |
| CC[C@H](C)[C@H](NC(=O)[C@@H](N)CC(=O)O)C(=O)N[C@@H](C(=O)N[C@@H](Cc1c[nH]c2ccccc12)C(=O)N[C@@H](CC(=O)O)C(=O)N[C@@H](CCC(N)=O)C(=O)N[C@@H](CC(C)C)C(=O)N[C@@H](Cc1c[nH]c2ccccc12)C(=O)N[C@@H](CC(=O)O)C(=O)N[C@@H](CC(C)C)C(=O)N[C@@H](CCSC)C(=O)N[C@@H](CCCCN)C(=O)O)[C@H](C)O (H-DI[dT]WDQLWDLMK-OH) | 2700 | – |
| ITWDQLWDLMK | – | IC50 (E-selectin [1]; [4]): 11 nM |
| AEKWDQLWHVMNPAESQ | 65 | – |
| CC[C@H](C)[C@H](NC(=O)[C@@H](N)CC(=O)O)C(=O)N[C@H](C(=O)N[C@@H](Cc1c[nH]c2ccccc12)C(=O)N[C@H](CC(=O)O)C(=O)N[C@@H](CCC(N)=O)C(=O)N[C@@H](CC(C)C)C(=O)N[C@@H](Cc1c[nH]c2ccccc12)C(=O)N[C@@H](CC(=O)O)C(=O)N[C@@H](CC(C)C)C(=O)N[C@@H](CCSC)C(=O)N[C@@H](CCCCN)C(=O)O)[C@@H](C)O (H-DITW[dD]QLWDLMK-OH) | 34 | – |
| DYSWHDLWEMMS | 16 | – |
| TWDQLWDLMK | – | IC50 (E-selectin [1]; [4]): 12000 nM |
| CC[C@H](C)[C@H](NC(=O)[C@@H](N)CC(=O)O)C(=O)N[C@H](C(=O)N[C@@H](Cc1c[nH]c2ccccc12)C(=O)N[C@@H](CC(=O)O)C(=O)N[C@@H](CCC(N)=O)C(=O)N[C@@H](CC(C)C)C(=O)N[C@@H](Cc1c[nH]c2ccccc12)C(=O)N[C@@H](CC(=O)O)C(=O)N[C@@H](CC(C)C)C(=O)N[C@@H](CCSC)C(=O)N[C@H](CCCCN)C(=O)O)[C@@H](C)O (H-DITWDQLWDLM[dK]-OH) | 1000 | – |
| DYTWFELWDMMQ | 6 | – |
| DITWDELWKIMN | 7 | – |
